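Cells were grown in 96-well plates and exposed to each compound for 48 hours at five concentrations; endpoints were interpolated linearly between bracketing concentrations, or set to the highest concentration if not reached. Here, GI50 denotes the concentration required for 50% inhibition of growth. TGI marks complete inhibition of growth.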 Where only a bound is given, the exact number is not on record here.

What all share (assay): NCI-60 cell line screen, 48 h
Experiment [1] concerns SW-620 colon.
Experiment [2] has as its system SK-MEL-28 melanoma.
Experiment [3] has as its system ACHN renal.
The test system of experiment [4] is SF-268 CNS.
In experiment [5] the test system is 786-0 renal.
Experiment [6] relates to NCI-H23 lung.
Experiment [7] relates to OVCAR-5 ovarian.
The subject of experiment [8] is KM12 colon.
The subject of experiment [9] is OVCAR-4 ovarian.
The test system of experiment [10] is MALME-3M melanoma.
In experiment [11] the test system is RPMI-8226 leukemia.
Experiment [12] concerns HT29 colon.
The test system of experiment [13] is NCI-H226 lung.
The test system of experiment [14] is MCF7 breast.
Experiment [15] has as its system NCI/ADR-RES ovarian.
Experiment [16] concerns HCC-2998 colon.
Experiment [17] concerns T-47D breast.
For experiment [18], the system named is A498 renal.

As for `O=C1CCN(CCC(F)(F)C(F)(F)C(F)(F)C(F)(F)F)C(=S)N1`, the TGI in [1], in experiment [2], in [3], in experiment [4], in experiment [5] and in [6] was > 100 µM throughout. Further, the TGI in [7], in experiment [8], in experiment [9], in experiment [10], in experiment [11] and in experiment [12] was > 100 µM throughout. The TGI in [13] was > 100 µM.

As for `NC(=S)Nc1c(S(N)(=O)=O)cc(S(N)(=O)=O)c(Cl)c1Cl`, the TGI in experiment [1], in [14], in experiment [2], in experiment [4], in experiment [15] and in experiment [5] was > 100 µM in each case. Moreover, the TGI in [6], in experiment [7], in experiment [8], in [9], in experiment [10] and in experiment [11] was > 100 µM in each case. The TGI in experiment [12] and in experiment [13] was > 100 µM each time.

Take `CC1(C)OP(=O)(c2ccccc2)C=C1Br` (stereo not given): the TGI in experiment [16], in experiment [17], in experiment [1], in experiment [18], in experiment [2] and in experiment [3] was > 100 µM each time. The TGI in [4], in experiment [15], in experiment [5], in [6], in [7] and in [8] was > 100 µM throughout. In addition, the TGI in experiment [9], in experiment [10], in experiment [11], in experiment [12] and in [13] was > 100 µM throughout.

With `CCCc1c(O)c2ccccc2[nH]c1=O`, the TGI in [16], in [1], in [18], in experiment [14], in experiment [2] and in [3] was > 100 µM throughout. The TGI in experiment [15], in experiment [5], in [6], in experiment [7], in [8] and in [9] was > 100 µM each time. Also, the TGI in [10], in experiment [11], in [12] and in experiment [13] was > 100 µM throughout.

Regarding `C=CC(Br)(CBr)CCC1OC1(C)C` (stereo not given), the TGI is 33.1 µM in experiment [16]; 26.8 µM in experiment [1]; 40.2 µM in experiment [18]; 29.9 µM in experiment [14]; 30.5 µM in [2]; 34.1 µM in experiment [3]. The TGI is 31.2 µM in experiment [4]; 58.7 µM in experiment [15]; 29.6 µM in experiment [5]; 30.3 µM in [6]; 33.3 µM in [7]; 30.9 µM in [8]. For the same compound, the TGI in [9] was determined as 30.5 µM; in [10], 38.2 µM; in [11], 82 µM; in [12], 32.8 µM; in experiment [13], 42.6 µM.

As to `Cc1c(/C=N/NC(=S)Nc2ccc([N+](=O)[O-])cc2)c(=O)n(-c2ccccc2)n1C`, the TGI in [16] was > 100 µM; in [1] it was > 100 µM; in experiment [18] it was 24 µM; in [14], 50 µM; in experiment [2], > 100 µM; in experiment [3], 23.6 µM. Also, the TGI in [4] was 26.7 µM; in experiment [15] it was 32.1 µM; in experiment [5], 27.3 µM; in experiment [6], 32.6 µM; in [8], 51.1 µM; in experiment [9], 34.7 µM. Besides, the TGI in experiment [11] was > 100 µM; in [12] it was 25.5 µM; in [13] it was 29.7 µM.

For the compound `CC1=N/C(=C\c2ccc(N)cc2)C(=O)N1Nc1nnc(NN2C(=O)/C(=C/c3ccc(N)cc3)N=C2C)c2ccccc12`, the TGI in experiment [1], in experiment [18], in experiment [2], in experiment [3], in experiment [4] and in experiment [5] was > 100 µM throughout. Moreover, the TGI in experiment [6] is > 100 µM; in [7] it was > 100 µM; in experiment [8], 81.5 µM; in experiment [9], > 100 µM; in experiment [11], > 100 µM; in [12], > 100 µM. For the same compound, in [13], the TGI is 56.5 µM.

Consider `COC(=O)C(=O)C(C(=O)C(=O)Nc1ccccc1C(N)=O)c1nc2ccc([N+](=O)[O-])cc2[nH]c1=O` (stereo not given), for which the TGI in experiment [16], in experiment [1], in [18], in experiment [2], in experiment [3] and in [4] was > 100 µM each time. Besides, the TGI in experiment [5], in [6], in experiment [7], in experiment [8], in experiment [9] and in [10] was > 100 µM each time. Also, the TGI in [11], in experiment [12] and in experiment [13] was > 100 µM in each case.

In the case of `NC(=S)N/N=C/c1cn(CCCl)c2ccccc12`, the TGI in experiment [1], in experiment [2], in [4], in [5], in [6] and in [7] was > 100 µM each time. The TGI in [8], in [10], in [11] and in [12] was > 100 µM each time.

On to `COc1ccc(/C=C2\C(=O)Nc3ccccc32)cc1OC`, for which the TGI in [1], in experiment [18], in experiment [2], in experiment [3], in [4] and in experiment [5] was > 100 µM in each case. The TGI in [6] was > 100 µM; in experiment [7], > 100 µM; in [8], > 100 µM; in [9], > 100 µM; in experiment [10], > 100 µM; in experiment [11], 64 µM. Besides, the TGI in experiment [12] and in experiment [13] was > 100 µM throughout.

`CN1CCC2(CC1)C(=O)N(NC(N)=O)C(=O)C2c1ccccc1` (stereo not given): the TGI in experiment [16], in experiment [17], in experiment [1], in [2], in [3] and in experiment [4] was > 100 µM throughout. Further, the TGI in experiment [15], in experiment [5], in [6], in [7], in experiment [8] and in experiment [9] was > 100 µM throughout. In addition, the TGI in experiment [10], in experiment [11], in [12] and in [13] was > 100 µM in each case.

Take `COc1ccc(-c2cc(=O)c3cc4c(cc3[nH]2)OCO4)c(OC)c1`: the TGI in [16], in experiment [1], in experiment [2], in experiment [3], in [4] and in experiment [5] was > 100 µM in each case. Besides, the TGI in experiment [6] was > 100 µM; in [8] it was > 100 µM; in experiment [9] it was > 100 µM; in experiment [10], 77.2 µM; in experiment [11], > 100 µM; in experiment [12] it was > 100 µM. In addition, the TGI in experiment [13] is > 100 µM. Moreover, the GI50 in [4] was 62.6 µM; in experiment [13] it was 93.5 µM.

Turning to `O=C(OC1C#CCSCC#C/C=C\1)c1cnc2ccccc2n1` (stereo not given), the TGI in experiment [16], in [1], in experiment [18], in experiment [14], in experiment [2] and in experiment [3] was > 100 µM in each case. In addition, the TGI in experiment [4] was > 100 µM; in experiment [15] it was > 100 µM; in experiment [5] it was 26.3 µM; in experiment [6] it was > 100 µM; in experiment [7], > 100 µM; in experiment [9], > 100 µM. For the same compound, the TGI in experiment [10], in [12] and in experiment [13] was > 100 µM throughout.

Consider `N#CC(NNC(=O)Cc1ccccc1)c1ccc(O)cc1` (stereo not given), for which the TGI in experiment [1], in experiment [2], in [3], in experiment [4], in experiment [5] and in [6] was > 100 µM each time. Also, the TGI in experiment [7], in experiment [8], in experiment [9], in [10], in experiment [11] and in experiment [12] was > 100 µM each time. For the same compound, the TGI in experiment [13] is > 100 µM.

`COc1ccccc1NC(=S)NNC(=O)c1cc(-c2ccccc2)nc2ccccc12`: the TGI in [16] worked out at 28.6 µM; in [17], 63 µM; in experiment [1], 84.9 µM; in experiment [2] it was 62 µM; in experiment [3] it was 65.8 µM; in experiment [4], 74.8 µM. The TGI was 63.5 µM in [15]; 32.8 µM in [5]; 32.3 µM in experiment [6]; 47 µM in experiment [7]; 46.5 µM in experiment [8]; 85.4 µM in experiment [9]. In addition, the TGI amounted to 28.9 µM in experiment [10], 53.6 µM in [11], 71.3 µM in experiment [12] and 51.9 µM in [13].

Take `O=C(CSc1nc(-c2ccccc2)c(-c2ccccc2)[nH]1)N/N=C/c1ccc([N+](=O)[O-])cc1`: the TGI in experiment [18] is 29.2 µM; in experiment [2], 31.2 µM; in experiment [3] it was 92.6 µM; in [4] it was 39.2 µM; in [5], 30.5 µM; in experiment [6] it was 33.9 µM. Besides, the TGI in experiment [8] was determined as 31.6 µM; in experiment [9] it was 58.8 µM; in experiment [10] it was 33.3 µM; in experiment [11], 52.1 µM; in [12], 35.8 µM; in experiment [13], 32.8 µM.

Take `CC1(C)OC[C@@H]([C@H](C=O)OCc2ccccc2)O1`: the TGI in experiment [1], in [18], in experiment [14], in [2], in experiment [3] and in [4] was > 100 µM in each case. Moreover, the TGI in experiment [15], in experiment [5], in experiment [6], in experiment [7], in experiment [8] and in experiment [9] was > 100 µM in each case. Further, the TGI in [10], in experiment [11], in experiment [12] and in experiment [13] was > 100 µM each time.

For `CC1OC(n2ccc3ccc([N+](=O)[O-])cc32)C(O)C(O)C1O` (stereo not given), the TGI in experiment [1], in [18], in experiment [2], in experiment [3], in [4] and in experiment [5] was > 100 µM in each case. Further, the TGI in experiment [6], in experiment [7], in experiment [8], in experiment [9], in [10] and in experiment [11] was > 100 µM in each case. Besides, the TGI in [12] and in experiment [13] was > 100 µM throughout.

Consider `COc1cc(/C=C(\C)c2ccc3c(c2)OCO3)cc(OC)c1OC`, for which the TGI is > 100 µM in experiment [16]; 95 µM in experiment [1]; 83.5 µM in experiment [18]; > 100 µM in [2]; 49.3 µM in [3]; > 100 µM in experiment [4]. Besides, the TGI in experiment [5] was > 100 µM; in experiment [6] it was > 100 µM; in [7], > 100 µM; in experiment [8] it was > 100 µM; in experiment [9], > 100 µM; in experiment [10], 62.1 µM. The TGI in experiment [12] and in experiment [13] was > 100 µM in each case.

For the origin of these results see PubChem BioAssay (NCI).
